Source: ChEMBL document CHEMBL4813934, “Investigation of Selected Flavonoid Derivatives as Potent FLT3 Inhibitors for the Potential Treatment of Acute Myeloid Leukemia” (J Nat Prod, 2021)

Assays:
[1] = molecular target: T1, Receptor-type tyrosine-protein kinase FLT3 (Homo sapiens, UniProt P36888); test: Inhibition of recombinant His-tagged human FLT3 (564 to 958 residues) expressed in baculovirus expression system using tyr 02 as substrate incubated for 1 hr by Z'-LYTE assay
T1 sequence (P36888 whole entry): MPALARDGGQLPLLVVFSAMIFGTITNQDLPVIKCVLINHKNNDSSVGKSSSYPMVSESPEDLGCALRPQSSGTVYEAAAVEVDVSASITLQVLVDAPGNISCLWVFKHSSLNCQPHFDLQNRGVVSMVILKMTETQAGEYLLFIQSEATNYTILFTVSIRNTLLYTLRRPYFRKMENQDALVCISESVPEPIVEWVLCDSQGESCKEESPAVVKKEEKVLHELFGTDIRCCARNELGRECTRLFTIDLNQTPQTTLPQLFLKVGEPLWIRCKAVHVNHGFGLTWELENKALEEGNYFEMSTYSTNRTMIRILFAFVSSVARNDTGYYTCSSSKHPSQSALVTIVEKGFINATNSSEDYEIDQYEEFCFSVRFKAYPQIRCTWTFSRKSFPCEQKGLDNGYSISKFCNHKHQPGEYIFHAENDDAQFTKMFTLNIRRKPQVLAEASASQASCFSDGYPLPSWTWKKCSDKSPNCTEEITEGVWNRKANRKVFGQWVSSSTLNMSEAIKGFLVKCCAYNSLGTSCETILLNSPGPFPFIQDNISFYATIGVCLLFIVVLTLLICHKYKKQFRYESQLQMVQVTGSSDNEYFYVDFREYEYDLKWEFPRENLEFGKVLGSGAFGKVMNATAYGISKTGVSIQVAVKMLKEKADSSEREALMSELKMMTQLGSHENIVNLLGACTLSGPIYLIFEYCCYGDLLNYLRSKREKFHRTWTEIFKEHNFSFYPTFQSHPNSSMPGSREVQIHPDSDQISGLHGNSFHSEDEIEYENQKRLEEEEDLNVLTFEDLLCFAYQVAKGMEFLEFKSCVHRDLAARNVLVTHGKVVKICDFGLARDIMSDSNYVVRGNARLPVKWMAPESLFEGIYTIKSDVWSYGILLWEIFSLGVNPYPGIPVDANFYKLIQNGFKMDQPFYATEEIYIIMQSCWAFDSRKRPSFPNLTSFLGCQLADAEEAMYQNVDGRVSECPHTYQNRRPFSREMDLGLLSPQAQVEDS

[2] = molecular target: Receptor-type tyrosine-protein kinase FLT3 (Homo sapiens) (UniProt P36888); test: Inhibition of recombinant His-tagged human FLT3 (564 to 958 residues) expressed in baculovirus expression system at 10 uM using tyr 02 as substrate incubated for 1 hr by Z'-LYTE assay relative to control
[3] = molecular target: Receptor-type tyrosine-protein kinase FLT3 (Homo sapiens, UniProt P36888, ITD); test: Inhibition of recombinant N-terminal GST/His6-tagged human FLT3 ITD mutant (571 to 993 residues) expressed in Sf9 insect cells incubated for 1 hr by LanthaScreen assay
[4] = molecular target: Receptor-type tyrosine-protein kinase FLT3 (Homo sapiens, UniProt P36888, D835Y); test: Inhibition of recombinant His-tagged human FLT3 D835Y mutant (564 to 958 residues) expressed in baculovirus expression system using tyr 02 as substrate incubated for 1 hr by Z'-LYTE assay
MOLM-13 = test: Cytotoxicity against human MOLM-13 cells assessed as reduction in cell viability measured after 72 hrs by MTT assay; type: functional, cell-based; conditions: MOLM-13, 72 h
MV4-11 = test: Cytotoxicity against human MV4-11 cells assessed as reduction in cell viability measured after 72 hrs by MTT assay; type: functional, cell-based; conditions: MV4-11, 72 h

SMILES | IC50 [1] [nM] | inhibition [2] [%] | IC50 [3] [nM] | IC50 [4] [nM] | IC50 (MOLM-13) [nM] | IC50 (MV4-11) [nM]
COc1ccc(-c2cc(=O)c3c(O)cc(O)cc3o2)cc1 [ACACETIN] | 880 | > 80 | 210 | 1000 | 9100 | 6800
COc1ccc(-c2cc(=O)c3c(O)c(OC)c(OC)cc3o2)cc1O [EUPATORIN] | 1100 | > 80 | – | – | – | –
COc1cc(O)c2c(=O)cc(-c3ccc(O)cc3)oc2c1 [GENKWANIN] | 1700 | > 80 | – | – | – | –
